Assay results as given in patent US20040023884A1, “Biologically active peptides from functional domains of bactericidal/permeability-increasing protein and uses thereof” (priority 1993, published 2004).
Ends that are not written are not given here.

B1: A6a: Asp-N fragment of rBPI23, residues 116-193 (protein)
chain: IKISGKWKAQKRFLKMSGNFDLSIEGMSISADLKLGSNPTSGKPTITCSSCSSHINSVHVHISKSKVGWLIQLFHKKI
B2: C1,C5: unresolved mixture of CNBr fragments of rBPI23, residues 1-56 and 112-170 (protein)
chain 1: MRENMARGPCNAPRWVSLMVLVAIGTAVTAAVNPGVVVRISQKGLDYASQQGTAAL
chain 2: SNANIKISGKWKAQKRFLKMSGNFDLSIEGMSISADLKLGSNPTSGKPTITCSSCSSHI
modifications: non-natural residues

What was measured:
[1] = 3H-heparin binding assay (affinity and capacity); settings: for cpm ^3H-Heparin bound: 100 picomoles of each fragment per well, saturating 3H-heparin 20 μg/mL, mean of duplicate wells ± range; for Heparin Capacity: heparin bound at saturation; for Kd: read-out: Heparin Affinity; for HEPCAP (x Fold change in activity): heparin binding capacity, relative to BPI.2
How it was run: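 Peptide fragments were bound to PVDF-membrane wells and incubated with 3H-heparin in blocking buffer for 1 h at 4 °C. After washing, bound radioactivity was quantified by liquid scintillation counting, with BSA background subtracted; rBPI23 served as positive control.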

E. coli 0113 LPS = assay: Limulus Amoebocyte Lysate (LAL) inhibition assay; type: biochemical; settings: for LAL (relative difference): alanine variant relative to BPI.2
Protocol: BPI proteolytic fragments produced according to Example 1 were subjected to a Limulus Amoebocyte Lysate (LAL) inhibition assay to determine LPS binding properties of these fragments. Specifically, each of the fragments were mixed in Eppendorf tubes with a fixed concentration of E. coli 0113 LPS (4 ng/mL final concentration) and incubated at 37° C. for 3 hours with occasional shaking. Addition controls comprising rBPI23 at 0.05 μg/mL were also tested. Following incubation, 360 μL of Dulbecco's phosphate buffered saline (D-PBS; Grand Island Biological Co. (GIBCO), Long Island, N.Y.) were added per tube to obtain an LPS concentration of 200 pg/mL for the LAL assay. Each sample was then transferred into Immulon II strips (Dynatech, Chantilly, Va.) in volumes of 50 μl per well.
Limulus amoebocyte Lysate (Quantitative Chromogenic LAL kit, Whitaker Bioproducts, Inc., Walkersville, Md.) was added at 50 μL per well and the wells were incubated at room temperature for 25 minutes. Chromogenic substrate was then added at a volume of 100 μL per well and was well mixed. After incubation for 20 to 30 minutes at room temperature, the reaction was stopped with addition of 100 μL of 25% (v/v) acetic acid. Optical density at 405 nm was then measured in a multiplate reader (Model Vmax, […], Menlo Park, Calif.) with the results shown in FIG. 2 in terms of percent inhibition of LPS. In this Figure, the filled circle represents rBPI23; the open circle represents Asp-N fragment A3; the x represents Asp-N fragment A2, the filled square represents Asp-N fragment A4; the filled triangle represents Asp-N fragment A1A2; the open square represents Asp-N fragment A6a; the small open triangle represents CNBr fragment C3; and the small filled square represents CNBr fragment C1/C5.

[2] = tested on: E. coli 0111:B4 (smooth) bacteria; assay: Radial diffusion bactericidal assay, E. coli 0111:B4; type: cell-based; settings: for pmol added to well to achieve a 30 mm^2 bactericidal zone, E. coli O111:B4: radial diffusion, PROBIT analysis, E. coli O111:B4 (smooth)
[3] = tested on: rough mutant E. coli J5 bacteria; assay: Radial diffusion bactericidal assay, E. coli J5; type: cell-based; settings: for pmol added to well to achieve a 30 mm^2 bactericidal zone, E. coli J5: radial diffusion, PROBIT analysis, E. coli J5 (rough)
How it was run: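 Log-phase bacteria, washed in 10 mM sodium phosphate pH 7.4, were seeded at 4×10^6 CFU/mL in underlayer agarose. BPI fragments (5 or 10 μL) went into 3 mm wells for 3 h at 37° C., then overlayer agarose was added. After overnight 37° C. incubation, clearing zones were measured by micrometer.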

C. albicans = assay: Radial diffusion fungicidal assay, Candida albicans; type: cell-based; settings: radial diffusion
Staphylococcus aureus = assay: Radial diffusion bactericidal assay, Staphylococcus aureus; type: cell-based; settings: S. aureus; for pmol added to well to achieve a 30 mm^2 bactericidal zone, S. aureus: radial diffusion, PROBIT analysis
RAW 264.7 cells = assay: LPS neutralization cellular proliferation assay, RAW 264.7 cells; type: cell-based, mouse
How it was run: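 Mouse RAW 264.7 cells were primed 24 h with 50U/mL mouse γ-interferon, then exposed about 15 h to E. coli O113 LPS in serum-free RPMI with or without BPI peptides at 25 ng/mL–50 μg/mL. Proliferation was quantified by [^3H]-thymidine uptake, 1 μCi/well, added at 5 h.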

Candida albicans = type: cell-based

| Molecule | Heparin Capacity [1] | Kd [1] | pmol added to well to achieve a 30 mm^2 bactericidal zone, E. coli O111:B4 [2] | pmol added to well to achieve a 30 mm^2 bactericidal zone, E. coli J5 [3] | LAL (relative difference) (E. coli 0113 LPS) | other results |
| --- | --- | --- | --- | --- | --- | --- |
| A1: Asp-N fragment of rBPI23, region 1-38 as printed in Table II (A1 A2 in Table I) (VNPGVVVRISQKGLDYASQQGTAALQKELKRIKIPDYS; Asp-N fragment; UniProt P17213 32-69, looked up, fragment) |  |  |  |  |  | cpm ^3H-Heparin bound [1]: 17,002 ± 479 cpm; amount required to inhibit the LAL assay, fold higher than 116-193 fragment / rBPI23 (E. coli 0113 LPS): 10 fold |
| A4: Asp-N fragment of rBPI23, residues 57-104 (DIREFQLPSSQISMVPNVGLKFSISNANIKISGKWKAQKRFLKMSGNF; UniProt P17213 88-135, looked up, fragment) |  |  |  |  |  | cpm ^3H-Heparin bound [1]: 33,159 ± 1.095 cpm; amount required to inhibit the LAL assay, fold higher than 116-193 fragment / rBPI23 (E. coli 0113 LPS): 10 fold |
| AKISGKWKAQKRFLK [BPI.15] | 145.4 ng | 315 nM | b (no detectable activity up to 5 μg/well) | 9,705.10 pmol | = (no difference in the LAL assay) |  |
| IAISGKWKAQKRFLK [BPI.16] | 127.25 ng | 231 nM | b (no detectable activity up to 5 μg/well) | 7,550.90 pmol | = (no difference in the LAL assay) |  |
| IKASGKWKAQKRFLK [BPI.17] | 113.1 ng | 266 nM | b (no detectable activity up to 5 μg/well) | 15,836.70 pmol | ↓ (moderate) | LAL / LPS inhibition activity (in words) (E. coli 0113 LPS): moderate |
| IKIAGKWKAQKRFLK [BPI.18] | 156.6 ng | 381 nM | b (no detectable activity up to 5 μg/well) | 7,128.50 pmol | = (no difference in the LAL assay) |  |
| IKISAKWKAQKRFLK [BPI.19] | 203.6 ng | 266 nM | b (no detectable activity up to 5 μg/well) | 2,187.80 pmol | = (no difference in the LAL assay) | HEPCAP (x Fold change in activity) [1]: =1.0 x Fold |
| IKISGAWKAQKRFLK [BPI.20] | 203.6 ng | 485 nM | b (no detectable activity up to 5 μg/well) | 3,451.40 pmol | = (no difference in the LAL assay) | HEPCAP (x Fold change in activity) [1]: =1.0 x Fold |
| IKISGKAKAQKRFLK [BPI.21] | 50.9 ng | 231 nM | b (no detectable activity up to 5 μg/well) | 27,647.60 pmol |  | heparin binding capacity, fold lower than the unsubstituted peptide [1]: 4 fold; fold reduction in bactericidal activity in the radial diffusion assay ([3]; alanine variant vs unsubstituted peptide): more than 10 fold; LAL / LPS inhibition activity (in words) (E. coli 0113 LPS): large decrease in activity |
| IKISGKWAAQKRFLK [BPI.22] | 135.7 ng | 315 nM | b (no detectable activity up to 5 μg/well) | 2,546.80 pmol | = (no difference in the LAL assay) | RDA (x Fold change in activity) ([3]; alanine variant relative to BPI.2): =1.0 x Fold |
| KSKVGWLIQLFHKF [BPI.96] | 203.8 ng | 469 nM | 8,691.85 pmol | 378.33 pmol |  | C. albicans: pmol required for 30 mm^2 zone (C. albicans): 1856.08 pmol; pmol added to well to achieve a 30 mm^2 bactericidal zone, S. aureus (Staphylococcus aureus): 91,585.37 pmol; EC50 (peptide concentration at which the growth inhibitory effect of LPS was reversed by 50%) (RAW 264.7 cells): 1.6 ± 0.2 µg/mL; IC50 (peptide concentration at which RAW cell growth was inhibited by 50%) (RAW 264.7 cells): 18.8 ± 0.8 µg/mL |
| KSKVGWLIQLFHKKKWKAQKRFLK [BPI.74] | 207.3 ng | 218 nM | 30,610.36 pmol | 731.94 pmol |  | fold increase in heparin affinity vs BPI.30 [1]: 2 fold; fold reduction in heparin binding capacity vs BPI.30 [1]: 2 fold; C. albicans: pmol required for 30 mm^2 zone (C. albicans): >2148.21 pmol; fold lower bactericidal activity than BPI.30 ([2]; E. coli 0111:B4): 50 fold; fold lower bactericidal activity than BPI.30 (Staphylococcus aureus): 3.5 fold; pmol added to well to achieve a 30 mm^2 bactericidal zone, S. aureus (Staphylococcus aureus): 4,290.18 pmol; fold lower bactericidal activity than BPI.30 ([3]; E. coli J5): 10 fold; EC50 (peptide concentration at which the growth inhibitory effect of LPS was reversed by 50%) (RAW 264.7 cells): 2.7 ± 0.3 µg/mL; IC50 (peptide concentration at which RAW cell growth was inhibited by 50%) (RAW 264.7 cells): 18.8 ± 0.8 µg/mL |
| KSKVGWLIQLWHKK [BPI.82] | 163.1 ng | 427 nM | 3,681.30 pmol | 171.32 pmol |  | C. albicans: pmol required for 30 mm^2 zone (C. albicans): 518.43 pmol; MIC C. alb (Candida albicans): 3.13 µg/mL; pmol added to well to achieve a 30 mm^2 bactericidal zone, S. aureus (Staphylococcus aureus): 11,027.00 pmol; EC50 (peptide concentration at which the growth inhibitory effect of LPS was reversed by 50%) (RAW 264.7 cells): 0.8 ± 0.1 µg/mL; IC50 (peptide concentration at which RAW cell growth was inhibited by 50%) (RAW 264.7 cells): 18.8 ± 0.8 µg/mL |
| B1 |  |  |  |  |  | cpm ^3H-Heparin bound [1]: 13,419 ± 309 cpm; LAL / LPS inhibition activity (in words) (E. coli 0113 LPS): LAL inhibitory activity similar to intact rBPI23; concentration giving complete inhibition of the LPS-induced LAL reaction (E. coli 0113 LPS): 15 nM |
| B2 |  |  |  |  |  | cpm ^3H-Heparin bound [1]: 82,918 ± 4,462 cpm; IC50 relative to intact rBPI23 (fold higher) (E. coli 0113 LPS): approximately 10 fold; IC50 (E. coli 0113 LPS; read-out: IC50 of inhibition of the LPS-induced LAL reaction): ~100 nM |
